Measurements from PubChem BioAssay (NCI).
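Test compounds were applied to cells in 96-well plates for 48 hours at 5 doses. Abbreviation: GI50, concentration required for 50% inhibition of growth. TGI: concentration producing complete growth inhibition.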

Legend:
Test in all cases: NCI-60 cell line screen, 48 h
HS 578T breast = test system: HS 578T breast
M14 melanoma = test system: M14 melanoma
MDA-MB-231 breast = test system: MDA-MB-231 breast
A498 renal = test system: A498 renal
OVCAR-5 ovarian = test system: OVCAR-5 ovarian
HL-60(TB) leukemia = test system: HL-60(TB) leukemia
OVCAR-8 ovarian = test system: OVCAR-8 ovarian
A549 NSCLC = test system: A549 NSCLC
SNB-19 CNS = test system: SNB-19 CNS
MALME-3M melanoma = test system: MALME-3M melanoma
SF-295 CNS = test system: SF-295 CNS
COLO 205 colon = test system: COLO 205 colon
SF-268 CNS = test system: SF-268 CNS
NCI-H226 lung = test system: NCI-H226 lung
NCI/ADR-RES ovarian = test system: NCI/ADR-RES ovarian
HCC-2998 colon = test system: HCC-2998 colon
SK-MEL-2 melanoma = test system: SK-MEL-2 melanoma
MOLT-4 leukemia = test system: MOLT-4 leukemia
NCI-H460 lung = test system: NCI-H460 lung
CCRF-CEM leukemia = test system: CCRF-CEM leukemia
EKVX NSCLC = test system: EKVX NSCLC
SN12C renal = test system: SN12C renal
LOX IMVI melanoma = test system: LOX IMVI melanoma
TK-10 renal = test system: TK-10 renal
SK-OV-3 ovarian = test system: SK-OV-3 ovarian
ACHN renal = test system: ACHN renal
OVCAR-3 ovarian = test system: OVCAR-3 ovarian
HOP-62 NSCLC = test system: HOP-62 NSCLC
SK-MEL-5 melanoma = test system: SK-MEL-5 melanoma
NCI-H23 lung = test system: NCI-H23 lung
786-0 renal = test system: 786-0 renal
SR leukemia = test system: SR leukemia
CAKI-1 renal = test system: CAKI-1 renal
DU-145 prostate = test system: DU-145 prostate
UACC-62 melanoma = test system: UACC-62 melanoma
RPMI-8226 leukemia = test system: RPMI-8226 leukemia
MDA-MB-435 = test system: MDA-MB-435
SF-539 CNS = test system: SF-539 CNS
HT29 colon = test system: HT29 colon
SNB-75 CNS = test system: SNB-75 CNS
PC-3 prostate = test system: PC-3 prostate
SW-620 colon = test system: SW-620 colon
U251 CNS = test system: U251 CNS
HCT-116 colon = test system: HCT-116 colon
KM12 colon = test system: KM12 colon
K-562 leukemia = test system: K-562 leukemia
HCT-15 colon = test system: HCT-15 colon
NCI-H522 lung = test system: NCI-H522 lung
MDA-MB-468 breast = test system: MDA-MB-468 breast
UACC-257 melanoma = test system: UACC-257 melanoma
RXF 393 renal = test system: RXF 393 renal
OVCAR-4 ovarian = test system: OVCAR-4 ovarian
SK-MEL-28 melanoma = test system: SK-MEL-28 melanoma
UO-31 renal = test system: UO-31 renal
HOP-92 NSCLC = test system: HOP-92 NSCLC

Compound: COc1cc(-c2ccc3ncnc(N4CCc5ccc(Cl)cc54)c3c2)cnc1Cl
- GI50 (HS 578T breast): 1.84 µM
- TGI (HS 578T breast): 7.41 µM
- GI50 (M14 melanoma): 3.88 µM
- TGI (M14 melanoma): > 100 µM
- GI50 (MDA-MB-231 breast): 3.94 µM
- TGI (MDA-MB-231 breast): 20.8 µM
- GI50 (A498 renal): 1.54 µM
- TGI (A498 renal): 7.16 µM
- GI50 (OVCAR-5 ovarian): 3.29 µM
- TGI (OVCAR-5 ovarian): > 100 µM
- GI50 (HL-60(TB) leukemia): 2.1 µM
- TGI (HL-60(TB) leukemia): 9.97 µM
- GI50 (OVCAR-8 ovarian): 3.64 µM
- TGI (OVCAR-8 ovarian): > 100 µM
- GI50 (A549 NSCLC): 3.03 µM
- TGI (A549 NSCLC): > 100 µM
- GI50 (SNB-19 CNS): 3.78 µM
- TGI (SNB-19 CNS): 83.6 µM
- GI50 (MALME-3M melanoma): 4.6 µM
- TGI (MALME-3M melanoma): 43.3 µM
- GI50 (SF-295 CNS): 2.62 µM
- TGI (SF-295 CNS): 24.6 µM
- GI50 (COLO 205 colon): 4.21 µM
- TGI (COLO 205 colon): > 100 µM
- GI50 (SF-268 CNS): 3.29 µM
- TGI (SF-268 CNS): > 100 µM
- GI50 (NCI-H226 lung): 2.39 µM
- TGI (NCI-H226 lung): 21.5 µM
- GI50 (NCI/ADR-RES ovarian): 2.23 µM
- TGI (NCI/ADR-RES ovarian): > 100 µM
- GI50 (HCC-2998 colon): 3.46 µM
- TGI (HCC-2998 colon): > 100 µM
- GI50 (SK-MEL-2 melanoma): 5.12 µM
- TGI (SK-MEL-2 melanoma): > 100 µM
- GI50 (MOLT-4 leukemia): 3.36 µM
- TGI (MOLT-4 leukemia): > 100 µM
- GI50 (NCI-H460 lung): 2.95 µM
- TGI (NCI-H460 lung): > 100 µM
- GI50 (CCRF-CEM leukemia): 5.7 µM
- TGI (CCRF-CEM leukemia): > 100 µM
- GI50 (EKVX NSCLC): 1.94 µM
- TGI (EKVX NSCLC): > 100 µM
- GI50 (SN12C renal): 3.34 µM
- TGI (SN12C renal): > 100 µM
- GI50 (LOX IMVI melanoma): 2.97 µM
- TGI (LOX IMVI melanoma): 29.5 µM
- GI50 (TK-10 renal): 2.12 µM
- TGI (TK-10 renal): 7.87 µM
- GI50 (SK-OV-3 ovarian): 3.84 µM
- TGI (SK-OV-3 ovarian): > 100 µM
- GI50 (ACHN renal): 2.4 µM
- TGI (ACHN renal): 14.4 µM
- GI50 (OVCAR-3 ovarian): 2.49 µM
- TGI (OVCAR-3 ovarian): > 100 µM
- GI50 (HOP-62 NSCLC): 6.12 µM
- TGI (HOP-62 NSCLC): 81.3 µM
- GI50 (SK-MEL-5 melanoma): 2.15 µM
- TGI (SK-MEL-5 melanoma): 9.36 µM
- GI50 (NCI-H23 lung): 2.91 µM
- TGI (NCI-H23 lung): > 100 µM
- GI50 (786-0 renal): 3.22 µM
- TGI (786-0 renal): 27.7 µM
- GI50 (SR leukemia): 4.08 µM
- TGI (SR leukemia): > 100 µM
- GI50 (CAKI-1 renal): 1.66 µM
- TGI (CAKI-1 renal): 12.7 µM
- GI50 (DU-145 prostate): 3.21 µM
- TGI (DU-145 prostate): > 100 µM
- GI50 (UACC-62 melanoma): 2.25 µM
- TGI (UACC-62 melanoma): > 100 µM
- GI50 (RPMI-8226 leukemia): 4.44 µM
- TGI (RPMI-8226 leukemia): > 100 µM
- GI50 (MDA-MB-435): 3.32 µM
- TGI (MDA-MB-435): > 100 µM
- GI50 (SF-539 CNS): 3.06 µM
- TGI (SF-539 CNS): 11.6 µM
- GI50 (HT29 colon): 2.88 µM
- TGI (HT29 colon): 16.4 µM
- GI50 (SNB-75 CNS): 1.56 µM
- TGI (SNB-75 CNS): 7 µM
- GI50 (PC-3 prostate): 2.52 µM
- TGI (PC-3 prostate): > 100 µM
- GI50 (SW-620 colon): 3.06 µM
- TGI (SW-620 colon): > 100 µM
- GI50 (U251 CNS): 4.71 µM
- TGI (U251 CNS): > 100 µM
- GI50 (HCT-116 colon): 2.89 µM
- TGI (HCT-116 colon): > 100 µM
- GI50 (KM12 colon): 3.99 µM
- TGI (KM12 colon): > 100 µM
- GI50 (K-562 leukemia): 3.83 µM
- TGI (K-562 leukemia): > 100 µM
- GI50 (HCT-15 colon): 3.17 µM
- TGI (HCT-15 colon): > 100 µM
- GI50 (NCI-H522 lung): 2.12 µM
- TGI (NCI-H522 lung): 10.1 µM
- GI50 (MDA-MB-468 breast): 1.26 µM
- TGI (MDA-MB-468 breast): 4.47 µM
- GI50 (UACC-257 melanoma): 6.32 µM
- TGI (UACC-257 melanoma): > 100 µM
- GI50 (RXF 393 renal): 1.78 µM
- TGI (RXF 393 renal): 6.77 µM
- GI50 (OVCAR-4 ovarian): 3.12 µM
- TGI (OVCAR-4 ovarian): 95.5 µM
- GI50 (SK-MEL-28 melanoma): 3.84 µM
- TGI (SK-MEL-28 melanoma): 46.7 µM
- GI50 (UO-31 renal): 1.14 µM
- TGI (UO-31 renal): > 100 µM
- GI50 (HOP-92 NSCLC): 2.11 µM
- TGI (HOP-92 NSCLC): > 100 µM
